Results as given in patent US20220204497A1, “NOVEL COMPOUND HAVING ANTICANCER ACTIVITY, AND METHOD FOR PRODUCING SAME” (MEDICINAL BIOCONVERGENCE RESEARCH CENTER, priority 2019, published 2022).

Tested on: A549 cells
Experiment: Cell viability by MTT method in A549 cells
Assay type: cell-based
Set-up: concentration or dose not given beside the values
Settings: 72 hours treatment

CC(C)C[C@H](NS(=O)(=O)c1ccc([N+](=O)[O-])cc1)C(=O)Nc1ccc(N2CCOCC2)cc1 [Compound 31, (S)-4-methyl-N-(4-morpholinophenyl)-2-(4-nitrophenylsulfonamido)pentanamide]
Cell Viability (% inhibition) (A549): 33.24 ± 4.95%

Cc1ccc(S(=O)(=O)N[C@@H](Cc2c[nH]c3ccccc23)C(=O)NC23CC4CC(CC(C4)C2)C3)cc1 [Compound 204, (S)—N-((3R,5R,7R)-adamantan-1-yl)-3-(1H-indol-3-yl)-2-(4-methylphenylsulfonamido)propanamide]
Cell Viability (% inhibition) (A549): 78.9 ± 2.62%

CC(C)C[C@H](NS(=O)(=O)c1ccc(-c2ccccc2)cc1)C(=O)Nc1ccc(N2CCOCC2)cc1 [Compound 33, (S)-2-(biphenyl-4-ylsulfonamido)-4-methyl-N-(4-morpholinophenyl)pentanamide]
Cell Viability (% inhibition) (A549): 26.48 ± 3.66%

Cc1ccc(S(=O)(=O)N[C@@H](Cc2c[nH]c3ccccc23)C(=O)Nc2nc(-c3ccc(C(=O)O)cc3)cs2)cc1 [Compound 228, (S)-4-(2-(3-(1H-indol-3-yl)-2-(4-methylphenylsulfonamido)propanamido)thiazol-4-yl)benzoic acid]
Cell Viability (% inhibition) (A549): 48.75 ± 5.85%

COc1ccc(-c2csc(NC(=O)[C@H](Cc3c[nH]c4ccccc34)NS(=O)(=O)c3ccc(F)cc3)n2)cc1 [Compound 213, (S)-2-(4-Fluorophenylsulfonamido)-3-(1H-indol-3-yl)-N-(4-(4-methoxyphenyl)thiazol-2-yl)propanamide]
Cell Viability (% inhibition) (A549): 83.29 ± 1.04%

COc1cc(OC)cc(C(=O)NCCCC[C@H](NS(=O)(=O)c2ccc(C)cc2)C(=O)Nc2ccc(N3CCOCC3)cc2)c1 [Compound 170, (S)-3,5-Dimethoxy-N-(5-(4-methylphenylsulfonamido)-6-(4-morpholinophenylamino)-6-oxohexyl)benzamide]
Cell Viability (% inhibition) (A549): 31.41 ± 4.96%

O=C(Nc1ccccc1)N[C@@H](Cc1c[nH]c2ccccc12)C(=O)N1CCOCC1 [Compound 132, (S)-1-(3-(1H-indol-3-yl)-1-morpholino-1-oxopropan-2-yl)-3-phenylurea]
Cell Viability (% inhibition) (A549): −11.18 ± 5.31%

Cc1ccc(S(=O)(=O)N[C@@H](CC(C)C)C(=O)Nc2ccc(N3CCCC3)cc2)cc1 [Compound 17, (S)-4-methyl-2-(4-methylphenylsulfonamido)-N-(4-(pyrrolidin-1-yl)phenyl)pentanamide]
Cell Viability (% inhibition) (A549): 20.11%

Cc1ccc(S(=O)(=O)N[C@@H](Cc2c[nH]c3ccccc23)C(=O)Nc2ccc(N3CCOCC3)nc2)cc1 [Compound 133, (S)-3-(1H-indol-3-yl)-2-(4-methylphenylsulfonamido)-N-(6-morpholinopyridin-3-yl)propanamide]
Cell Viability (% inhibition) (A549): 6.18 ± 6.05%

Cc1ccc(S(=O)(=O)N[C@@H](CO)C(=O)Nc2ccc(N3CCOCC3)cc2)cc1 [Compound 130, (S)-3-Hydroxy-2-(4-methylphenylsulfonamido)-N-(4-morpholinophenyl)propanamide]
Cell Viability (% inhibition) (A549): 16.62 ± 10.08%

Cc1ccc(S(=O)(=O)N[C@@H](CCC(=O)Nc2ccccc2)C(=O)Nc2ccc(N3CCOCC3)cc2)cc1 [Compound 172, (S)-2-(4-Methylphenylsulfonamido)-N^1-(4-morpholinophenyl)-N^5-phenylpentanediamide]
Cell Viability (% inhibition) (A549): −2.14 ± ? .1%

COc1ccc(-c2csc(NC(=O)[C@H](CNC(=O)c3cncnc3)NS(=O)(=O)c3ccc(C)cc3)n2)cc1 [Compound 232, (S)—N-(3-((4-(4-methoxyphenyl)thiazol-2-yl)amino)-2-(4-methylphenylsulfonamido)-3-oxopropyl)pyrimidine-5-carboxamide]
Cell Viability (% inhibition) (A549): 40.98 ± 2.65%

COC(=O)CC[C@@H](C(=O)Nc1ccc(N2CCOCC2)cc1)N(C)S(=O)(=O)c1ccccc1 [Compound 137, (S)-Methyl 4-(methylphenylsulfonamido)-5-(4-morpholinophenylamino)-5-oxopentanoate]
Cell Viability (% inhibition) (A549): 17.75 ± 5.15%

Cc1ccc(S(=O)(=O)N[C@H](Cn2c(=O)c(=O)[nH]c3ccccc32)C(=O)Nc2ccc(N3CCOCC3)cc2)cc1 [Compound 139, (R)-3-(2,3-dioxo-3,4-dihydroquinoxalin-1(2H)-yl)-2-(4-methylphenylsulfonamido)-N-(4-morpholinophenyl)propanamide]
Cell Viability (% inhibition) (A549): 9.99 ± 0.24%

COc1ccc(S(=O)(=O)N[C@@H](CC(C)C)C(=O)Nc2ccc(N3CCOCC3)cc2)cc1 [Compound 29, (S)-2-(4-methoxyphenylsulfonamido)-4-methyl-N-(4-morpholinophenyl)pentanamide]
Cell Viability (% inhibition) (A549): 12.70 ± 4.95%

Cc1ccc(S(=O)(=O)N[C@@H](CC(C)C)C(=O)N2CCOCC2)cc1 [Compound 1, (S)-4-methyl-N-(4-methyl-1-morpholino-1-oxopentan-2-yl)benzenesulfonamide]
Cell Viability (% inhibition) (A549): 17.79%

COc1ccc(CNC(=O)CC[C@H](NS(=O)(=O)c2ccc(C)cc2)C(=O)Nc2ccc(N3CCOCC3)cc2)cc1 [Compound 171, (S)—N^5-(4-Methoxybenzyl)-2-(4-methylphenylsulfonamido)-N^1-(4-morpholinophenyl)pentanediamide]
Cell Viability (% inhibition) (A549): 40.19 ± 4.29%

Cc1ccc(S(=O)(=O)N[C@@H](CC(=O)OCc2ccccc2)C(=O)Nc2ccc(N3CCOCC3)cc2)cc1 [Compound 142, (S)-Benzyl 3-(4-methylphenylsulfonamido)-4-(4-morpholinophenylamino)-4-oxobutanoate]
Cell Viability (% inhibition) (A549): 15.9 ± 4.84%

CC(C)C[C@H](NS(=O)(=O)c1ccccc1)C(=O)Nc1ccc(N2CCOCC2)cc1 [Compound 27, (S)-4-methyl-N-(4-morpholinophenyl)-2-(phenylsulfonamido)pentanamide]
Cell Viability (% inhibition) (A549): 13.51 ± 9.40%

O=C(Nc1ccc(N2CCOCC2)cc1)[C@H](Cc1c[nH]c2ccccc12)NS(=O)(=O)c1ccc(C(F)(F)F)nc1 [Compound 136, (S)-3-(1H-indol-3-yl)-N-(4-morpholinophenyl)-2-(6-(trifluoromethyl)pyridine-3-sulfonamido)propanamide]
Cell Viability (% inhibition) (A549): 87.12 ± 2.3%

COc1ccc(-c2cc(NC(=O)[C@H](Cc3c[nH]c4ccccc34)NS(=O)(=O)c3ccc(C)cc3)on2)cc1 [Compound 126, (S)-3-(1H-indol-3-yl)-N-(3-(4-methoxyphenyl)isoxazol-5-yl)-2-(4-methylphenylsulfonamido)propanamide]
Cell Viability (% inhibition) (A549): 85.53 ± 0.66%

Cc1ccc(S(=O)(=O)N[C@H](C(=O)Nc2ccc(N3CCOCC3)cc2)C(C)C)cc1 [Compound 131, (S)-3-Methyl-2-(4-methylphenylsulfonamido)-N-(4-morpholinophenyl)butanamide]
Cell Viability (% inhibition) (A549): 5.78 ± 7.70%

COc1ccc(-c2csc(NC(=O)[C@H](Cc3c[nH]c4ccccc34)NC(=O)c3ccc(C)cc3)n2)cc1 [Compound 210, (S)—N-(3-(1H-indol-3-yl)-1-((4-(4-methoxyphenyl)thiazol-2-yl)amino)-1-oxopropan-2-yl)-4-methylbenzamide]
Cell Viability (% inhibition) (A549): 40.83 ± 8.13%

CC(C)C[C@H](NS(=O)(=O)c1ccc(C(=O)O)cc1)C(=O)N1CCOCCOCCOCC1 [Compound 157, (S)-4-(N-(4-methyl-1-oxo-1-(1,4,7-trioxa-10-azacyclododecan-10-yl)pentan-2-yl)sulfamoyl)benzoic acid]
Cell Viability (% inhibition) (A549): 64.40 ± 2.96%
